Like-named read-outs stand apart in the source and are kept apart here.
Legend:
[1] = target: T1, Porcine pancreatic phospholipase A2 (Sus scrofa, UniProt P00592); test: Phospholipase A2 inhibitory activity, method A (egg yolk lecithin substrate); type: biochemical; settings: 1,000 ppm, 37°C for 30 minutes, read-out: % inhibition of PLA2 (1,000 ppm)
T1 construct: purchased Boehringer Mannheim·Yamanouchi K.K. 161454·122416
Procedure: To 10 mg of egg yolk lecithin (manufactured by Wako Pure Chemical Industries Ltd.), 1 ml of glycerine, 2 ml of a 50 mM Tris-HCl buffer solution (pH7.5) [Tris(hydroxymethyl)aminomethane (manufactured by Nacalai Tesque K.K.) was adjusted to pH7.5 with hydrochloric acid], 0.5 ml of a 150 mM calcium chloride solution (calcium chloride was dissolved in a 50 mM Tris-HCl buffer solution) and 0.5 ml of a 0.05% Triton-X100 (manufactured by Nacalai Tesque K.K.) solution (Triton-X100 was dissolved in a 50 mM Tris-HCl buffer solution), were added and dispersed by an agate mortar or dispersed by an ultrasonic processor (Model W-225, manufactured by Heat System-Ultrasonics, Inc.) for 5 minutes (30W) to obtain a substrate.
(§1) Porcine pancreatic phospholipase A2 [(161454·122416) manufactured by Boehringer Mannheim·Yamanouchi K.K.] was used.
To a 96 well microtitration plate (flat bottom, manufactured by Sumitomo Bakelite Medical Co., Ltd.), 40 µl of the substrate, 5 µl of a solution prepared by dissolving 10 mg of a test compound in 500 µl of dimethylsulfoxide, followed by an addition of 500 µl of a 50 mM Tris-HCl buffer solution, and 5 µl of an enzyme solution of 20 ng/ml (prepared by diluting the enzyme in a 50 mM Tris-HCl buffer solution), were added and reacted at 37°C for 30 minutes. After termination of the reaction, the released free fatty acid was quantitatively analyzed in accordance with the ACS-ACOD (acyl CoA synthetase-acyl CoA oxidase) method [a kit of NEFA C test wako (manufactured by Wako Pure Chemical Industries, Ltd.) was used]. The quantitative analysis was made by means of Microplate ELISA Reader (Model 2550EIA Reader, manufactured by Bio-Rad Laboratories) at a wavelength of 540 nm. Separately, such experiments as mentioned above, were carried out at various concentrations (2 µg/ml, 1 µg/ml and 0.5 µg/ml) of phospholipase A2 without a test compound. Then, the concentration of the free fatty acid versus the concentration of phospholipase A2 was plotted.
(§2) From this standard curve, the apparent concentration of phospholipase A2 in the case with a test compound, was read. Then, the percent inhibition of the enzyme was calculated by the following formula. Percent inhibition (%) = (l -(A)/(B)) x 100 [formula] • A: Apparent enzyme concentration when a test compound is added. • B: True enzyme concentration when a test compound is added.

[2] = system: increased vascular permeability induced by acetic acid; test: Inhibitory activity on increased vascular permeability induced by acetic acid (Mouse Whittle method, method C); type: in vivo, ddy male mice; settings: amount of leaked dye
Procedure: Using ddy male mice, each test group consisted of 4 or 5 mice. A test compound was mixed with Tween 80 [polyoxyethylenesorbitan monooleate (manufactured by Nacalai Tesque K.K.)], and distilled water was added thereto to obtain a 2% Tween 80 suspension, or it was dissolved in the form of a salt in water to obtain an aqueous solution. A test compound was orally administered, and upon expiration of one hour from the administration, 0.7% acetic acid was intraperitonially injected to each mouse in an amount of 0.1 ml/10 g, and at the same time, 2% brilliant blue was intravenously injected into the tail vein in an amount of 0.1 ml/20 g. Thirty minutes after the injection of brilliant blue, the cervical vertebrae were dislocated under anesthesia by chloroform, and the abdorminal cavity was washed with 5 ml of a physiological saline. The washing solution was subjected to centrifugal separation at 3,000 rpm for 10 minutes, and the amount of the dye in the supernatant was measured at 600 nm absorbance by Microplate ELISA Reader (Model 2550EIA Reader, manufactured by Bio-Rad Laboratories). The inhibition rate of the amount of leaked dye in the group in which a test compound was administered relative to the control group was obtained by the following formula. Inhibition rate (%) = (l -(C)/(D)) x 100 [formula] • C: Amount of leaked dye in the group to which a test compound was administered. • D: Amount of leaked dye in the control group.

carrageenin edema = test: Inhibitory activity on carrageenin edema; type: in vivo, Wistar male rats; settings: rat, paw swelling volume three hours after carrageenin; for Inhibition rate (%): dose 50 mg/kg orally
Procedure: Using Wistar male rats (body weight: about 100 g), each test group consisted of 5 rats. A test compound was mixed with Tween 80 [polyoxyethylenesorbitan monooleate (manufactured by Nacalai Tesque K.K.)], and distilled water was added thereto to obtain a 2% Tween 80 suspension, or it was dissolved in the form of a salt in water to obtain an aqueous solution. Either the suspension or the aqueous solution was orally administered in an amount of 200 mg/kg, 100 mg/kg, 50 mg/kg or 25 mg/kg. One hour later, 0.1 ml of a 1% λ-carrageenin solution dissolved in a physiological saline was injected subcutaneously to the right hind paw of each rat to cause inflamation. Three hours later, the paw volume was measured by a paw volume measuring device (manufactured by Ugobasiee K.K.). A swelling volume was obtained from the difference from the value before the inflammation. Inhibition rate (%) = (l -(F)/(E)) x 100 [formula] • F: Average swelling volume in the group to which a test compound was administered. • E: Average swelling volume in the control group.

[3] = target: T1, Porcine pancreatic phospholipase A2; test: Phospholipase A2 inhibitory activity, method B (L-α-dipalmitoylphosphatidylcholine substrate); type: biochemical; settings: 1,000 ppm, 37°C for 30 minutes, read-out: % inhibition of PLA2 (1,000 ppm)
Procedure: To a solution prepared by dissolving 9.2 mg of L-α-dipalmitoylphosphatidylcholine (manufactured by Nichiyu Liposome K.K.) in 0.5 ml of chloroform, a solution prepared by dissolving 32 mg of sodium cholate (manufactured by Wako Pure Chemical Industries, Ltd.) in 0.5 ml of methanol, was added, followed by mixing. The solvent of the mixture was removed under a nitrogen stream, and then 2.5 ml of a 250 mM sodium chloride solution [prepared by dissolving sodium chloride in a 100 mM Tris-HCl buffer solution {tris(hydroxymethyl)aminomethane (manufactured by Nacalai Tesque K.K.) was adjusted to pH8.0 with hydrochloric acid}] was added thereto, and the mixture was dissolved under stirring to obtain a substrate.
as §1
To a 96 well microtitration plate, 20 µl of a solution containing calcium chloride, bovine serum alubmin (manufactured by Sigma Chemical, Co.) and a Tris-HCl buffer solution (pH8.0) at concentrations of 25 mM, 4.5 mg/ml and 100 mM, respectively, 5 µl of a solution prepared by dissolving 10 mg of a test compound in 500 µl of diemthylsulfoxide, followed by an addition of 500 µl of a 200 mM Tris-HCl buffer solution, 5 µl of an enzyme solution (10 µg/ml) [prepared by dissolving the enzyme in a bovine serum alubmin solution (prepared by dissolving bovine serum alubmin in a 100 mM Tris-HCl buffer solution at a concentration of 1 mg/ml)] and 20 µl of the substrate, were added and reacted at 37°C for 30 minutes. After termination of the reaction, the released free fatty acid was quantitatively analyzed in accordance with the ACS-ACOD (acyl CoA synthetase-acyl CoA oxidase) method [a kit of NEFA C test wako (manufactured by Wako Pure Chemical Industries, Ltd.) was used]. The quantitative analysis was made by means of Microplate ELISA Reader (Model 2550EIA Reader, manufactured by Bio-Rad Laboratories) at a wavelength of 540 nm. Separately, such experiments as mentioned above, were carried out at various concentrations (1 µg/ml, 0.75 µg/ml, 0.5 µg/ml and 0.25 µg/ml) of phospholipase A2 without a test compound. Then, the concentration of the free fatty acid versus the concentration of phospholipase A2 was plotted.
as §2

[4] = Acute toxicity, intravenous injection (LD50); type: in vivo; settings: mouse, in vivo, ddy male mice, sodium salt, mortality over one week
Procedure: Administration route: Intravenous injection
Using ddy male mice (body weight: 25 - 30 g), each test group consisted of 5 mice. A test compound was dissolved in the form of a sodium salt in a physiological saline or in a 5% glucose aqueous solution, and intravenously injected in an amount of 0.1 ml/10 g body weight. After the injection, the mortality rate was obtained over one week, and the median lethal dose LD50 (mg/kg) was determined.

[5] = system: experimental acute pancreatitis model; test: Effects against acute pancreatitis (Test Example 8, closed duodenal loop method, lesion scores); type: in vivo, Crj-CD male rats; settings: sodium salt, 6 hours after ventrotomy; for inhibition in vivo at 10 mg/kg: Rattus norvegicus, 10 mg/kg single intravenous injection
Procedure: Using Crj-CD male rats, each test group consisted of 3 rats. An experimental acute pancreatitis model was prepared by a closed duodenal loop method under anethesia with halothane (manufactured by Hoechst Japan) and nitrous oxide (manufactured by Sumitomo Seika K.K.) applied by a general inhalation anesthesia machine (Model EM2 and halothane evaporator F-Model). Each compound (subjected to the test in the form of a sodium salt) was continuously intravenously injected into the tail vein in an amount of 0.4 ml/100 g to 0.6 ml/100 g at a rate of 0.05 ml per minute by a pump (Technicon AA II Proportioning Pump III, manufactured by Technicon Instruments Corporation) or rapidly intravenously injected. No injection was made to a control group. Gross pathological examination was conducted upon expiration of 6 hours after the ventrotomy in the case of the group to which the compound was administered. With respect to each of four lesions among pancreatic lesions i.e. petechia, ecchymosis, pancreatic necrosis and abdominal fatty necrosis, the grade and the distribution of lesions were scored with five grades of 0, 0.5, 1, 2 and 3 (severe lesions are 3). The sum of all lesions was designated as scores of pancreatitis lesions, and the sum of the score of petechia and the score of ecchymosis only was designated as scores of hemorrhagic lesions. The pancreatitis inhibition rate (%) and the hemorrhage inhibition rate (%) were obtained by the following formulas, and the results are shown in Table 13. Pancreatitis inhibition rate (%) = (l -(H)/(G)) x 100 [formula] • H: Scores of pancreatitis lesions of the group to which a test compound was administered. • G: Scores of pancreatitis lesions of the control group. Hemorrhage inhibition rate (%) = (l -(J)/(I)) x 100 [formula] • J: Scores of hemorrhagic lesions of the group to which a test compound was administered. • I: Scores of hemorrhagic lesions of the control group.

[6] = read-out: Inhibition rate of hemorrhagic lesions (%)
[7] = read-out: Inhibition rate of pancreatitis lesions (%)

T1 sequence (P00592 23-146): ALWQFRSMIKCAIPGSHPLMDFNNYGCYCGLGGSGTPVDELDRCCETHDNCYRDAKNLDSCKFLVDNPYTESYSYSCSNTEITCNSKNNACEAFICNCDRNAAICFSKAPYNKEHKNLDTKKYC

CCCCCCCCC(=O)Nc1cc(C(F)(F)F)cnc1NS(C)(=O)=O [Compound No. 4]
inhibition at 1000 ppm [1]: 74% | Inhibition rate (%) ([2]; dose 50 mg/kg orally): 43%

CCCCCCCCCCCC(=O)Nc1cc(C(F)(F)F)cnc1NS(C)(=O)=O [compound 5]
inhibition in vivo at 100 mg/kg (carrageenin edema; po, 3 h, dose 100 mg/kg orally, read-out: Inhibition rate (%)): 37% | inhibition at 1000 ppm [1]: 39% | Inhibition rate (%) ([2]; dose 50 mg/kg orally): 53%

CC(C)(C)CC(=O)Nc1cc(C(F)(F)F)cnc1NS(C)(=O)=O [compound 7]
Inhibition rate (%) ([2]; dose 20 mg/kg orally): 53% | inhibition at 1000 ppm [3]: 50%

CS(=O)(=O)Nc1ncc(C(F)(F)F)cc1NC(=O)C(F)(F)F [compound 12]
inhibition at 1000 ppm [1]: 89% | LD50 at 168 h ([4]; iv): > 150 mg/kg

CCS(=O)(=O)Nc1ncc(C(F)(F)F)cc1NC(=O)C(F)(F)Cl [compound 20]
inhibition at 1000 ppm [1]: 74% | Inhibition rate (%) ([2]; dose 20 mg/kg orally): 48%

CCOC(=O)NC(=S)Nc1cc(C(F)(F)F)cnc1NS(=O)(=O)CC [compound 21]
inhibition at 1000 ppm [1]: 62% | Inhibition rate of hemorrhagic lesions (%) ([5]; 27 mg/kg continuous intravenous injection): 57% | LD50 at 168 h [4]: > 75 mg/kg

O=C(Nc1cc(C(F)(F)F)cnc1NS(=O)(=O)c1ccccc1)C(F)(F)F [compound 24]
inhibition at 1000 ppm [1]: 66% | Inhibition rate of hemorrhagic lesions (%) ([5]; 11 mg/kg continuous intravenous injection): 68% | LD50 at 168 h ([4]; iv): > 150 mg/kg

CNc1ncc(C(F)(F)F)cc1NC(=O)C(F)(F)C(F)(F)F [compound 41]
inhibition at 1000 ppm [1]: 89% | Inhibition rate (%) ([2]; dose 100 mg/kg orally): 85%

CS(=O)(=O)Nc1ncc(C(F)(F)F)cc1NC(=O)Cc1ccccc1 [compound 60]
Inhibition rate (%) (carrageenin edema): 27% | inhibition in vivo at 10 mg/kg [5, 6]: 92% | inhibition in vivo at 10 mg/kg [5, 7]: 94% | LD50 at 168 h ([4]; iv): > 60 mg/kg | inhibition at 1000 ppm [3]: 41%

CS(=O)(=O)Nc1ncc(C(F)(F)F)cc1NC(=O)Cc1cccs1 [compound 61]
inhibition in vivo at 10 mg/kg [5, 6]: 79% | inhibition in vivo at 10 mg/kg [5, 7]: 64% | LD50 at 168 h ([4]; iv): > 80 mg/kg | inhibition at 1000 ppm [3]: 36%

CS(=O)(=O)Nc1ncc(C(F)(F)F)cc1NC(=O)C1CC=CCC1 (centres unmarked) [compound 68]
inhibition in vivo at 10 mg/kg [5, 6]: 74% | inhibition in vivo at 10 mg/kg [5, 7]: 77% | LD50 at 168 h ([4]; iv): > 80 mg/kg | inhibition at 1000 ppm [3]: 81%

CC=CC=CC(=O)Nc1cc(C(F)(F)F)cnc1NS(C)(=O)=O [compound 73]
Inhibition rate (%) (carrageenin edema): 20% | inhibition in vivo at 10 mg/kg [5, 6]: 74% | inhibition in vivo at 10 mg/kg [5, 7]: 79% | LD50 at 168 h ([4]; iv): > 80 mg/kg | inhibition at 1000 ppm [3]: 53%

CS(=O)(=O)Nc1ncc(C(F)(F)F)cc1NC(=O)c1ccc(F)c(F)c1 [compound 77]
Inhibition rate (%) (carrageenin edema): 22% | inhibition in vivo at 10 mg/kg [5, 6]: 66% | inhibition in vivo at 10 mg/kg [5, 7]: 70% | LD50 at 168 h ([4]; iv): > 80 mg/kg | inhibition at 1000 ppm [3]: 61%

O=C(Nc1cc(C(F)(F)F)cnc1NS(=O)(=O)C(F)(F)F)C1CCCCC1 [compound 91]
Inhibition rate (%) (carrageenin edema): 23% | LD50 at 168 h ([4]; iv): > 80 mg/kg | inhibition at 1000 ppm [3]: 81%

CCCOC(=O)Nc1cc(C(F)(F)F)cnc1NS(=O)(=O)C(C)C [compound 106]
Inhibition rate (%) (carrageenin edema): 19% | inhibition in vivo at 10 mg/kg [5, 6]: 96% | inhibition in vivo at 10 mg/kg [5, 7]: 97% | LD50 at 168 h [4]: > 20 mg/kg | inhibition at 1000 ppm [3]: 78%
